Source: the NIST ThermoML archive (doi:10.1016/j.tca.2008.11.005)

Conditions: Liquid

C[SiH]1O[SiH](C)O[SiH](C)O[SiH](C)O[SiH](C)O1 (stereo not given) [2,4,6,8,10-pentamethylcyclopentasiloxane]
Conditions | vapor or sublimation pressure [kPa]
330.8 K | 1.325
348.03 K | 3.325
357.45 K | 5.325
364.75 K | 7.325
370.73 K | 9.325
375.49 K | 11.32
378.23 K | 13.32
381.78 K | 15.32
385.02 K | 17.32
387.96 K | 19.32
390.75 K | 21.32
393.18 K | 23.32
395.46 K | 25.32
397.89 K | 27.32
399.92 K | 29.32
401.9 K | 31.32
403.77 K | 33.33
405.7 K | 35.33
407.22 K | 37.33
408.94 K | 39.33
410.46 K | 41.33
411.98 K | 43.33
413.4 K | 45.33
414.87 K | 47.33
416.19 K | 49.33
417.55 K | 51.33
423.53 K | 61.33
429.06 K | 71.33
433.77 K | 81.33
437.93 K | 91.33

CCO [ethanol]
Conditions | vapor or sublimation pressure [kPa]
303.95 K | 11.32
315.75 K | 21.32
323.5 K | 31.32
329.35 K | 41.33
334.05 K | 51.33
338.05 K | 61.33
341.65 K | 71.33
344.75 K | 81.33
347.55 K | 91.33
350.15 K | 101.33
